Assay [1] deals with NCI-H358 cell (human non-small cell lung cancer cell). As to the kind of experiment: Inhibition of the proliferation activity of NCI-H358 cell (CellTiter-Glo). In kind it is cell-based. Particulars: 120 h, 5 days. How it is done: Test Example 4: Experiment on the Inhibition of the Proliferation Activity of NCI-H358 Cell (Human Non-Small Cell Lung Cancer Cell)
cell: NCI-H358 (Nanjing CoBioer);
kit: CellTiter-Glo® Luminescent Cell Viability Assay Kit (Promega).
inoculation amount of cell: 1500 cells/well;
incubation conditions for compounds: 37° C., 5% CO2;
incubation duration: 5 days;
detecting temperature: room temperature;
chemiluminescence detection using the BMG PHERAstar FS reader.
Cells were cultured in a medium containing 10% fetal bovine serum under the culture conditions of 37° C. and 5% CO2. An appropriate amount of cells were plated into a 96-well plate and cultured overnight in an incubator to allow the cells to adhere to the wall. The following day, the medium was removed and a complete medium containing a pre-diluted compound was added and incubated at 37° C. for 5 days. On the fifth day, the detection reagent CellTiter-Glo® was added into each well. Chemiluminescence was adopted to detect the relative luminescence units (RLUs) of the wells.
The result of a well containing cell-free medium, treated with CellTiter-Glo®, was obtained as the blank value. Cell viability (%)=(sample RLU−blank RLU)/(vehicle RLU−blank RLU)×100%, and maximum inhibition rate (%)=100%−cell viabilitymax. conc. (%). The half maximal inhibitory concentration (IC50) of the compound was calculated by fitting the curve according to the four-parameter logistic model.
For orientation: Cellular ATP, detected with luciferase, serves as a proxy for viable cell number.

The target in assay [2] is T1, recombinant full-length human PTPN11 (SHP2) (Homo sapiens, UniProt Q06124).
T1 construct: recombinant full-length human PTPN11 (SHP2), active (SignalChem); purchased SignalChem
T1 sequence (Q06124 1-593): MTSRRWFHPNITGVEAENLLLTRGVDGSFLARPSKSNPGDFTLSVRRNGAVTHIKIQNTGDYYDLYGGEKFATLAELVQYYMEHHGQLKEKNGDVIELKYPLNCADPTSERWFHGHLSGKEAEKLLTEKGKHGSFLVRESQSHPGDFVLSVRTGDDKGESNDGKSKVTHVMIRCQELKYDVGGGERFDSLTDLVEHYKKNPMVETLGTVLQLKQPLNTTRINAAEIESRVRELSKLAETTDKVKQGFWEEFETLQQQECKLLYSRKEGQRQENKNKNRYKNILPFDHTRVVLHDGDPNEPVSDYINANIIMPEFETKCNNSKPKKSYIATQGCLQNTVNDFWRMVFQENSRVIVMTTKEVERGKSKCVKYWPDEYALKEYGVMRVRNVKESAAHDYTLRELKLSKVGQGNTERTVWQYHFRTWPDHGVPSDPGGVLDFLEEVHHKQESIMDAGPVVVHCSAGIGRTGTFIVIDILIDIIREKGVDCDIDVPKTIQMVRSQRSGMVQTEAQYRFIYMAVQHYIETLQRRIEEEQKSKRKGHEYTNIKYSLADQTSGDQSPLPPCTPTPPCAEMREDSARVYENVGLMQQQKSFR
As to the kind of experiment: Inhibition of in vitro enzyme activity of SHP2 (DiFMUP fluorescence endpoint assay). Conditions: SHP2 0.5 nM, DiFMUP 200 μM, IRS-1 0.5 μM; 60 min incubation. In kind it is biochemical. In outline:
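Full-length human SHP2 (0.5 nM) with 0.5 μM IRS1 bis-phosphopeptide preincubated with compound 60 min at room temperature, pH 7.2 HEPES with 5 mM DTT. DiFMUP (200 μM) reacted 30 min, stopped with bpv, fluorescence ex 340/em 450 nm. IC50 by four-parameter logistic fit.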

Consider `CC(C)(O)C1CN(c2nccc(Sc3ncc(N4CCC5(CC4)Cc4ncccc4[C@H]5N)nc3N)c2Cl)C1` [Example 46, (S)-2-(1-(4-(3-amino-5-(5-amino-5,7-dihydrospiro[cyclopenta[b]pyridine-6,4′-piperidin]-1′-yl)pyrazin-2-ylthio)-3-chloropyridin-2-yl)azetidin-3-yl)propan-2-ol], for which the IC50 in assay [1] amounted to 28 nM; in assay [2], 2.6 nM.

As for `C[C@@H]1OCC2(CCN(c3ncc(Sc4ccnc(N5CC(C)(CS(C)(=O)=O)C5)c4Cl)nc3CO)CC2)[C@@H]1N` [Example 29, (3-((3S,4S)-4-amino-3-methyl-2-oxa-8-azaspiro[4.5]decan-8-yl)-6-(3-chloro-2-(3-methyl-3-(methylsulfonylmethyl)azetidin-1-yl)pyridin-4-ylthio)pyrazin-2-yl)methanol], the IC50 in assay [1] was found to be 40 nM; in assay [2], 1.68 nM.

Consider `C[C@@H]1OCC2(CCN(c3ncc(Sc4ccnc(N5CC(C(C)(C)O)C5)c4Cl)nc3CO)CC2)[C@@H]1N` [Example 12, 2-(1-(4-(5-((3S,4S)-4-amino-3-methyl-2-oxa-8-azaspiro[4.5]decan-8-yl)-6-(hydroxymethyl)pyrazin-2-ylthio)-3-chloropyridin-2-yl)azetidin-3-yl)propan-2-ol], for which the figures for the IC50 in assay [1] and in assay [2] were 18 nM and 2.5 nM, respectively.

Turning to `C[C@@H]1OCC2(CCN(c3ncc(Sc4ccnc(N5CC(CO)(CF)C5)c4Cl)nc3CO)CC2)[C@@H]1N` [Example 42, (3-((3S,4S)-4-amino-3-methyl-2-oxa-8-azaspiro[4.5]decan-8-yl)-6-(3-chloro-2-(3-(fluoromethyl)-3-(hydroxymethyl)azetidin-1-yl)pyridin-4-ylthio)pyrazin-2-yl)methanol], the IC50 in assay [1] came out at 44 nM; in assay [2], 10.2 nM.

On to `C[C@@H]1OCC2(CCN(c3ncc(Sc4ccnc(N5CCCC5CO)c4Cl)nc3CO)CC2)[C@@H]1N` (stereo partly drawn) [Example 2], for which the values for the IC50 in assay [1] and in assay [2] were 40 nM and 1.82 nM, respectively.

For `CC(C)(O)C1CN(c2nccc(Sc3cnc(N4CCC5(CC4)Cc4ccccc4[C@H]5N)c(CO)n3)c2Cl)C1` [Example 23, (S)-2-(1-(4-(5-(1-amino-1,3-dihydrospiro[indene-2,4′-piperidin]-1′-yl)-6-(hydroxymethyl)pyrazin-2-ylthio)-3-chloropyridin-2-yl)azetidin-3-yl)propan-2-ol], the figures for the IC50 in assay [1] and in assay [2] were 5 nM and 1.9 nM, respectively.

In general, IC50 refers to the point on the concentration scale where inhibition reaches its midpoint.

Source of the values: US20230212180A1, “SUBSTITUTED PYRAZINE COMPOUND, PHARMACEUTICAL COMPOSITION COMPRISING SAME, AND USE THEREOF” (Sichuan Kelun-Biotech Biopharmaceutical Co., Ltd., priority 2020, published 2023).
